Measurements reported in patent US20090264291A1, “COMPOSITIONS COMPRISING ANTI-PROLIFERATIVE AGENTS AND USE THEREOF” (priority 1998, published 2009).
Where “and” joins values, the source holds several entries; their conditions need not be identical. Equal values may be shown once.

System: cells
Experiment: Cytotoxicity by agarose diffusion test
Type: cell-based
Procedure: Cytotoxicity was assessed by an agarose diffusion test, in which the test material is applied to the surface of agarose gel, wherein the agarose gel is in contact with cells. Cytotoxic test material causes cell lysis. Live cells incorporate MTT and transform it to formazan as described herein above; cytotoxicity potential is given according to the mean area of non-stained cells, i.e., lysed cells, by the following scale:
Two independent tests were performed in duplicate (total of 4 Petri dishes). Cultured cell were trypsinized and counted. 2×10^6 cells in 4 ml of DMEM medium were seeded in each 50 mm diameter Petri dish. The dishes were incubated for 24 h+1 h at 37° C., 5% CO2, before they were covered with 4% agarose gel, prepared with complete DMEM medium. The test compound (tomato derived extract) was applied on top of a 6 mm disc of filter paper that was placed in the center of the agarose gel surface.
After 23 h-25 h of contact at 37° C. and 5% CO2 the filter paper with the test compound and the agarose gel were gently removed. The cells were rinsed carefully with PBS by a pipette. The liquid was then removed, and 2 ml solution of MTT at 0.5 mg/ml, prepared extemporaneously from a source solution of 5 mg/ml, was added to each dish. The dishes were then incubated for 0.5-1.5 h at 37° C. and 5% CO2. After removal of the excess dye, living cells were colored while lysed cells appeared as an uncolored zone. Each dish was placed on a light surface and the largest and the smallest diameters of the lysis area, estimated visually, were measured by a measuring ruler (mm) on a graph paper, and the mean diameter was calculated.
The value of the diameter of cell lysis taken into account for the determination of cytotoxicity corresponded to the arithmetical mean of the mean diameter defined for the 2 dishes of each test (MD). Pure complete DMEM served as a negative control (no lysis should occur). 3% SDS served as a positive control (cells are lysed due to the presence of SDS).

[1] = dishes 1-4, 23 h-25 h of contact

CCCCCCCCCCCCOS(=O)(=O)[O-].[Na+] [3% SDS, SDS]
MD (mean of the mean diameter for the 2 dishes of each test) (dishes 1 + 2 and 3 + 4): 2.6 cm | Mean (diameter of lysis) (dishes 1-4): 2.6 cm and 2.5 cm | Largest diameter (of the lysis area) [1]: 2.5 cm and 2.6 cm | Smallest diameter (of the lysis area) [1]: 2.4 cm and 2.5 cm
